Measurements published in PubChem BioAssay (NCI).
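1) Cells in 96-well plates. 2) Compound, 48 h, 5 concentrations. 3) Linear interpolation between surrounding doses. 4) Unreached endpoint = highest concentration. Here, GI50 denotes the concentration required for 50% inhibition of growth. TGI is the concentration that stops growth completely.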

Legend:
Assay in all cases: NCI-60 cell line screen, 48 h
[1] = tested on: SF-295 CNS
[2] = tested on: OVCAR-3 ovarian
[3] = tested on: SNB-75 CNS
[4] = tested on: IGROV1 ovarian
[5] = tested on: MOLT-4 leukemia
[6] = tested on: HL-60(TB) leukemia
[7] = tested on: NCI-H522 lung
[8] = tested on: U251 CNS
[9] = tested on: OVCAR-5 ovarian
[10] = tested on: T-47D breast
[11] = tested on: SK-MEL-2 melanoma
[12] = tested on: NCI-H23 lung
[13] = tested on: HS 578T breast
[14] = tested on: LOX IMVI melanoma
[15] = tested on: HOP-62 NSCLC
[16] = tested on: K-562 leukemia
[17] = tested on: SK-OV-3 ovarian
[18] = tested on: COLO 205 colon
[19] = tested on: HT29 colon
[20] = tested on: NCI-H226 lung
[21] = tested on: SR leukemia
[22] = tested on: OVCAR-8 ovarian
[23] = tested on: SK-MEL-5 melanoma
[24] = tested on: MALME-3M melanoma
[25] = tested on: PC-3 prostate
[26] = tested on: ACHN renal
[27] = tested on: A498 renal
[28] = tested on: 786-0 renal
[29] = tested on: SN12C renal
[30] = tested on: TK-10 renal
[31] = tested on: MDA-MB-435
[32] = tested on: DU-145 prostate
[33] = tested on: HCC-2998 colon
[34] = tested on: A549 NSCLC
[35] = tested on: SF-268 CNS
[36] = tested on: SW-620 colon
[37] = tested on: RPMI-8226 leukemia
[38] = tested on: SK-MEL-28 melanoma
[39] = tested on: KM12 colon
[40] = tested on: MCF7 breast
[41] = tested on: MDA-MB-231 breast
[42] = tested on: UACC-62 melanoma
[43] = tested on: OVCAR-4 ovarian
[44] = tested on: HOP-92 NSCLC
[45] = tested on: RXF 393 renal
[46] = tested on: UACC-257 melanoma
[47] = tested on: CCRF-CEM leukemia
[48] = tested on: HCT-15 colon
[49] = tested on: HCT-116 colon
[50] = tested on: NCI/ADR-RES ovarian
[51] = tested on: UO-31 renal
[52] = tested on: NCI-H460 lung
[53] = tested on: EKVX NSCLC
[54] = tested on: SF-539 CNS
[55] = tested on: BT-549 breast
[56] = tested on: M14 melanoma
[57] = tested on: SNB-19 CNS

What does the source list for `Nc1c(C(=O)Nc2cccc3ccccc23)sc2nc3c(cc12)CCCCC3`?
GI50 [1]: 421 nM; TGI [1]: > 50000 nM; GI50 [2]: 542 nM; TGI [2]: > 50000 nM; GI50 [3]: 161 nM; TGI [3]: > 50000 nM; GI50 [4]: 1900 nM; TGI [4]: > 50000 nM; GI50 [5]: 418 nM; TGI [5]: > 50000 nM; GI50 [6]: 202 nM; TGI [6]: 2870 nM; GI50 [7]: 724 nM; TGI [7]: 4700 nM; GI50 [8]: 998 nM; TGI [8]: > 50000 nM; GI50 [9]: 2480 nM; TGI [9]: > 50000 nM; GI50 [10]: 5940 nM; TGI [10]: > 50000 nM; GI50 [11]: > 50000 nM; TGI [11]: > 50000 nM; GI50 [12]: 1780 nM; TGI [12]: > 50000 nM; GI50 [13]: 350 nM; TGI [13]: > 50000 nM; GI50 [14]: 909 nM; TGI [14]: > 50000 nM; GI50 [15]: 2630 nM; TGI [15]: > 50000 nM; GI50 [16]: 216 nM; TGI [16]: > 50000 nM; GI50 [17]: 1470 nM; TGI [17]: > 50000 nM; GI50 [18]: 1460 nM; TGI [18]: 4990 nM; GI50 [19]: 1050 nM; TGI [19]: 4000 nM; GI50 [20]: 7580 nM; TGI [20]: > 50000 nM; GI50 [21]: 214 nM; TGI [21]: > 50000 nM; GI50 [22]: 1680 nM; TGI [22]: > 50000 nM; GI50 [23]: 347 nM; TGI [23]: 11500 nM; GI50 [24]: 31900 nM; TGI [24]: > 50000 nM; GI50 [25]: 1070 nM; TGI [25]: > 50000 nM; GI50 [26]: 2590 nM; TGI [26]: > 50000 nM; GI50 [27]: 646 nM; TGI [27]: 25800 nM; GI50 [28]: 443 nM; TGI [28]: > 50000 nM; GI50 [29]: 2260 nM; TGI [29]: > 50000 nM; GI50 [30]: 43400 nM; TGI [30]: > 50000 nM; GI50 [31]: 116 nM; TGI [31]: 320 nM; GI50 [32]: 1730 nM; TGI [32]: > 50000 nM; GI50 [33]: 2410 nM; TGI [33]: > 50000 nM; GI50 [34]: 1900 nM; TGI [34]: > 50000 nM; GI50 [35]: 2820 nM; TGI [35]: > 50000 nM; GI50 [36]: 538 nM; TGI [36]: > 50000 nM; GI50 [37]: 1160 nM; TGI [37]: > 50000 nM; GI50 [38]: 4320 nM; TGI [38]: > 50000 nM; GI50 [39]: 760 nM; TGI [39]: > 50000 nM; GI50 [40]: 168 nM; TGI [40]: > 50000 nM; GI50 [41]: 1270 nM; TGI [41]: > 50000 nM; GI50 [42]: 219 nM; TGI [42]: > 50000 nM; GI50 [43]: 1790 nM; TGI [43]: > 50000 nM; GI50 [44]: 375 nM; TGI [44]: > 50000 nM; GI50 [45]: 992 nM; TGI [45]: > 50000 nM; GI50 [46]: 17100 nM; TGI [46]: > 50000 nM; GI50 [47]: 692 nM; TGI [47]: > 50000 nM; GI50 [48]: 309 nM; TGI [48]: > 50000 nM; GI50 [49]: 407 nM; TGI [49]: > 50000 nM; GI50 [50]: 402 nM; TGI [50]: > 50000 nM; GI50 [51]: 1910 nM; TGI [51]: > 50000 nM; GI50 [52]: 1330 nM; TGI [52]: > 50000 nM; GI50 [53]: 1350 nM; TGI [53]: > 50000 nM; GI50 [54]: 458 nM; TGI [54]: > 50000 nM; GI50 [55]: 549 nM; TGI [55]: 3750 nM; GI50 [56]: 339 nM; TGI [56]: > 50000 nM; GI50 [57]: 662 nM; TGI [57]: > 50000 nM
